The values below come from patent US8617563B2, “Antichlamydial agents” (Duke University, priority 2011, dated 2013).

As a reminder, the IC50 is the concentration at which inhibition is half-maximal. Low values mean higher potency, high ones lower potency.

Assay [1] addresses T1, CPAF (Chlamydia trachomatis serovar D, UniProt O84866). It counts as biochemical, C. trachomatis. The arrangement: 6xHis; made in house; host or cells: E. coli (pET30b). To be noted: GST-tagged chlamydial substrates, 37° C., 20 min. How it is done: FIG. 4 depicts (A) Recombinant Chlamydia ORFs were tested for sensitivity to host and bacterial derived proteases. […] Purified his-tagged CPAF was incubated with GST-tagged chlamydial substrates at 37° C. for 20 min with increasing amounts of lactacystin. Cleavage products were run on an SDS PAGE gel and visualized with Coomassie blue staining. (C) Schematic summary of CPAF targets. […] Membranes from Chlamydia-infected HeLa cells were harvested and purified at 0, 24, 36 and 48 hours post-infection, and the abundance of the chlamydial proteins Ct005, IncC and IncD were monitored with specific antibodies. Na/K ATPase and IncG served as host and bacterial-loading controls, respectively.
(§1) Cytosols from Chlamydia-infected HeLa cells (40 hrs) or recombinant his-tagged CPAF were pre-treated with rabbit polyclonal anti-CPAF or anti-IncA antisera, and incubated with GST-tagged Chlamydia proteins for 20 min at 37° C. […] Three example proteins shown include a type-III secretion (T3S) core component (CdsQ) a T3S chaperone (Mcsc) and a T3S needle component (Ct584). Processing of recombinant proteins in A-B were monitored by immunoblot analysis with specific antibodies. (C) Protease inhibitor profile of recombinant CPAF. Example shown for the chlamydial substrate GST-IncC. Degradation products were visualized by SDS-PAGE followed by staining with Coomassie blue. […]
Uninfected and HeLa cells pre-infected with L2 for 30 hrs were treated with inhibitory peptides and infected with EBs for 10 min Tarp translocation was indirectly visualized with an anti-phosphotyrosine antibody (A) and quantified by counting 50 separate cells (B). The stability of newly translocated Tarp was assessed by infecting cells as in (A) but with S^35-labeled EBs, followed by sequential immunoprecipitation of Tarp and MOMP and Phosphoimager analysis of precipitated material (C (I-IV)). […] IC50 values were determined by assessing CPAF cleavage of an Abz-tagged CPAF substrate (SEQ ID NO:9) by HPLC. […] Extracellular bacteria were determined. […] The number of internalized EBs was quantified per cell (H). […]
Target sequence in this assay (O84866 1-234, added parts left off): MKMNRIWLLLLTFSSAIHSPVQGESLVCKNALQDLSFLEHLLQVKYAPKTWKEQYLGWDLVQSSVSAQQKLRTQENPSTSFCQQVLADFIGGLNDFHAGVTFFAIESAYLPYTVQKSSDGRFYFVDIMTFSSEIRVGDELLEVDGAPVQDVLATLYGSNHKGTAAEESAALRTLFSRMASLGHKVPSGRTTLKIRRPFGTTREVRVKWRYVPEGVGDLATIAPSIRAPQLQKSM
Target sequence in this assay (O84866 276-601): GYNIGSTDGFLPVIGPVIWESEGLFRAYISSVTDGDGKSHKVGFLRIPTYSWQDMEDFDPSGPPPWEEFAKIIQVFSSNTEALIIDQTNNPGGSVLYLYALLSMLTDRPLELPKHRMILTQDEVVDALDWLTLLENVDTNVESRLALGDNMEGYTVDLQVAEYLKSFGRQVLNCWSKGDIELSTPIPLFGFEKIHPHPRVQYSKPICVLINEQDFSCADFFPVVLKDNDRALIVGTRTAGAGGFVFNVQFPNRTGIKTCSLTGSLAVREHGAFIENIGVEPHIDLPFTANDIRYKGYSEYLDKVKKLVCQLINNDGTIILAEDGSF

The target of assay [2] is T1, CPAF. As to the kind of experiment: HPLC-based CPAF inhibition assay with Abz-tagged model substrate (SEQ ID NO:9). The format is biochemical, C. trachomatis. Details: 6xHis; made in house; host or cells: E. coli BL21 (DE3), plasmid pET30b-CPAF. The conditions noted are these: CPAF 62.5 nM, substrate SEQ ID NO:9 0.5 mM, inhibitor 0-240 μM. On the procedure: FIG. 1 depicts the results of HPLC-based CPAF inhibition assays using a model CPAF substrate (SEQ ID NO:9) to compare inhibition of CPAF protease activity by SEQ ID NO:7, SEQ ID NO:2, and lactacystin. HPLC-based assays were performed in a final volume of 100 μL containing assay buffer, CPAF (62.5 nM), substrate 1 (0.5 mM), and varying concentrations of inhibitor (0-240 μM).
HPLC-based assays comprised an Abz-tagged model CPAF substrate (SEQ ID NO:9) and were performed in a final volume of 100 μL containing 150 mM NaCl, 50 mM Tris pH 7.50, purified CPAF (62.5 nM), fluorescent-tagged model CPAF substrate (0.5 mM), and varying concentrations of each candidate compound (0-240 μM). IC50 values were determined by pre-incubating CPAF with varying concentrations of candidate compound for 5 min at room temperature prior to initiation of the reaction via the addition of model CPAF substrate. Reactions were allowed to proceed for 90 seconds at 25° C., followed by removal of 80 μL aliquots and quenching by the addition of 1.2 M HCl (40 μL). Data were converted to percent activity relative to a control reaction without candidate compound and fit to the following equation using GraFit v6.0, where [I] is the concentration of candidate compound and s is a slope factor: […]
Target sequence in this assay (O84866 276-601): as above
Target sequence in this assay (O84866 1-234, added parts left off): as the sequence (O84866 1-234, added parts left off) above

For assay [3], the target named is T1, CPAF. The format is biochemical, C. trachomatis. To be noted: cytosol pre-treated with inhibitor or antibody. The arrangement: endogenous in cells; host or cells: HeLa cells infected with C. trachomatis LGV-L2 434/Bu (the bacteria make the protein and secrete it into the host cytosol). How it is done:
as §1, with “FIG. 5 depicts (A) that Polyclonal anti-CPAF antisera blocks proteolysis of chlamydial substrates. Cytosols” for “Cytosols”, “GST-IncC.” for “GST-IncC. Degradation products were visualized by SDS-PAGE followed by staining with Coomassie blue.”
Recombinant CPAF was generated using pET30b (Huang et al., Cell Host & Microbe, 4:529-542 (2008). For in vitro cleavage assays, Chlamydia ORFs were expressed in either yeast or E. coli. Crude recombinant proteins were incubated for 30 minutes with cytosol from uninfected or LGV-L2 infected (40 h) HeLa cells, and processing was assessed by SDS-PAGE and immunoblotting using standard techniques. Approximately 8% of the expressed chlamydial proteins were sensitive to degradation after incubation with cytosol derived from infected cells (FIG. 3A). Processing ranged from the generation of distinct cleavage fragments to complete degradation (FIG. 3B). […]
Target sequence in this assay (O84866 276-601): as the sequence (O84866 276-601) above
Target sequence in this assay (O84866 24-234): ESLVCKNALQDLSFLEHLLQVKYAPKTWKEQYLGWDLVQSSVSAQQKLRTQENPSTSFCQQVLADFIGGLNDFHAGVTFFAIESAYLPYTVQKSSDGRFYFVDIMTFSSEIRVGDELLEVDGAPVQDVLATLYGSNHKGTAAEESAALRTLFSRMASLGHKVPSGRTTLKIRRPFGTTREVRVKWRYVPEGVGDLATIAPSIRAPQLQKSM

Assay [4] deals with T1, CPAF. Details: endogenous in cells; host or cells: HeLa cells infected with C. trachomatis LGV-L2 434/Bu (the bacteria make the protein and secrete it into the host cytosol). To be noted: C. trachomatis LGV-L2 434-infected HeLa cells; Kumar et al. 2008; cited from earlier work.
Target sequence in this assay (O84866 276-601): as the sequence (O84866 276-601) above
Target sequence in this assay (O84866 24-234): as the sequence (O84866 24-234) above

Regarding `CC(=O)N[C@@H](CSC(=O)[C@]1([C@@H](O)C(C)C)NC(=O)[C@H](C)[C@@H]1O)C(=O)O` [lactacystin], at CPAF [1], the “Inhibition of proteolysis by recombinant CPAF” value is “inhibited”. The same molecule had an IC50 at CPAF [2] of 10.2 ± 2.3 µM. For the same molecule, the “Protection of chlamydial proteins from degradation by cytosols of Chlamydia-infected cells” value at CPAF [3] is listed as “protected from degradation”. Moreover, the “Vimentin state in infected HeLa cells treated with lactacystin” value at CPAF [4] is “fiber oligomerization of vimentin”.
